Measured values from patent US20230190797A1, “COMPOSITIONS AND METHODS FOR ADOPTIVE CELL THERAPY” (MEMORIAL SLOAN KETTERING CANCER CENTER, priority 2017, published 2023).
Read-outs that look alike come from different tables or passages of the source.

Legend:
primary T-cells = assay: CellTitre Glo in vitro cytotoxicity, primary T cells; assay type: cell-based; conditions: prodrug versus AMS
HEK293T (kidney) = assay: CellTitre Glo in vitro cytotoxicity, HEK293T; assay type: cell-based, human; conditions: prodrug versus AMS
SET2 cells = assay: SET2 viability with prodrug plus enzyme or enzyme-containing supernatant; assay type: cell-based; conditions: increasing prodrug
Experimental: Recombinant CPG2 protein was initially synthesized, purified (FIGS. 18A and 18B), and incubated with increasing concentrations of prodrug in a glutamate release assay (FIG. 17C). Mass spectrometry was used to determine that the glutamate moiety was released from all of the glutamate prodrugs.
Cell viability was measured by CellTitre-Glo® luminescence assay.
To determine to respective enzyme output of the Beta-lactamase constructs relative to the previous CPG2 constructs, a quantitative sandwich ELISA was used to determine the concentration (ng/mL) of purified recombinant CPG2, and a quantitative nitrocefin assay was used to determine the concentration (ng/mL) of purified recombinant Beta-lactamase (FIG. 25A). Cell viability was measured by CellTitre-Glo® luminescence in the presence of prodrug (glut-AMS or ceph-AMS) and varying concentrations of purified recombinant CPG2 or Beta-lactamase (FIG. 25B).

[1] = test system: myeloid leukemia cell line SET2; assay: Cytotoxicity, SET2; assay type: cell-based; conditions: Set2, prodrug versus AMS
[2] = Cell permeability in CACO-2 cells; assay type: in vitro ADME; conditions: human, read-out: Efflux Ratio (B-A/A-B)
[3] = test system: endogenous glutamate carboxypeptidase expressed in human prostate cells; assay: Prodrug stability towards endogenous glutamate carboxypeptidase, LNCap viability; assay type: cell-based
Excerpt: This prodrug/drug combination was chosen for further development of the SEAKER systems.

[4] = mouse, in vivo
in vivo = conditions: NOD, mouse
[5] = test system: HEK293T cells expressing CPG2 variants; assay: Viability of HEK293T cells expressing CPG2 variants exposed to prodrug; assay type: cell-based, human
Experimental: FIG. 9 provides exemplary data showing that that cell-secreted and transmembrane CPG2 expressed in stably transfected cells activates an AIS prodrug. Expression of CPG2 without a signal peptide (CPG2nosigp) was employed as a control. 293t cells stably transfected with CPG2 variants were exposed to P-AMS (1 μM) for 48 hours and analyzed by bright field microscopy (FIG. 9A). Cells were exposed to varying concentrations of P-AMS and cell viability was analyzed at 48 hr post treatment (FIG. 9B).
Expression of CPG2 without a signal peptide (CPG2nosigp) was employed as a control. HEK293t cells stably transfected with CPG2 variants were exposed to P-AMS (1 μM) for 48 hours and analyzed by bright field microscopy (FIG. 9A). Cells were exposed to varying concentrations of P-AMS and cell viability was analyzed at 48 hr post treatment (FIG. 9B).

With `Nc1ncnc2c1ncn2[C@@H]1O[C@H](COS(=O)(=O)NCC2=C(C(=O)O)N3C(=O)[C@@H](NC(=O)Cc4cccs4)[C@H]3SC2)[C@@H](O)[C@H]1O` [ceph-AMS] the “Selective Index, Human T cell” value (primary T-cells) was greater than 6, the “Selective Index, HEK293t” value (HEK293T (kidney)) was roughly 3 and the “SET2 cell viability with Beta-lactamase supernatant” value (SET2 cells) was “significant decrease in cell viability”. The “Selective Index, Set2” value [1] was roughly 64.

In the case of `CN(C)C(=O)C(CCN1CCC(O)(c2ccc(Cl)cc2)CC1)(c1ccccc1)c1ccccc1` [Loperamide], the efflux ratio ([2]; Caco-2, with Ver (concentration not stated), + Ver) was 0.7 and the efflux ratio ([2]; Caco-2, without Ver) was 7.7.

With `NS(=O)(=O)OC[C@H]1O[C@@H](n2cnc3c(NC(=O)N[C@@H](CCC(=O)O)C(=O)O)ncnc32)[C@H](O)[C@@H]1O` [P-AMS, ((9-((2R,3R,4S,5R)-3,4-dihydroxy-5-((sulfamoyloxy)methyl)tetrahydrofuran-2-yl)-9H-purin-6-yl)carbamoyl)-L-glutamic acid] the “stability in presence of endogenous glutamate carboxypeptidase” value [3] was “remained stable”, the toxicity in mice [4] was “non-toxic” and the half-life (in vivo) was 30 to 40 min. For the same molecule, the “activation of prodrug by cells expressing CPG intracellularly” value ([5]; HEK293T cells expressing CPG intracellularly) was “not activated” and the “cell death of cells expressing secreted or transmembrane CPG2” value ([5]; stably transfected HEK293T, cell-secreted and transmembrane CPG2, 48 hr, no-signal-peptide control did not) was “significant cell death”.
